The values that follow come from PMC12526156, “Optimization of the Macrocyclic Tetrapeptide [D-Trp]CJ-15,208 to Prevent Stress-Induced Relapse of Cocaine-Seeking Behavior” (Molecules, 2025).

≈ marks a conversion by molar mass, not a printed value. Where two headings read alike, the source gives them in different places. Where a SMILES comes first, the peptide text is derived from it. [ ]: non-standard residue; d: D form. dPhe(3,5-F2) = N[C@H](Cc1cc(F)cc(F)c1)C(=O)O

Series [1] deals with T1, hKOR (Homo sapiens, UniProt P41145). The experiment in a line: Competition binding, [3H]U69,593, hKOR-CHO membranes.
The target in a further series is T2, human MOR (Homo sapiens, UniProt P35372).
T2 construct: expressed in transfected cells
As to the kind of experiment: biochemical. The format is binding.

For series [2], the target named is T1, hKOR. As to the kind of experiment: KOR cAMP assay using GloSensor-22F, agonist mode (KOR-CHO-GLO cells). The format is cell-based. The settings on record: read-out: KOR Efficacy (%).
The target of series [3] is T1, hKOR. As to the kind of experiment: KOR cAMP assay using GloSensor-22F, antagonist mode (vs 10 nM U50,488). Type of series: cell-based. The source says:
A piggy-Bac (PB) transposon/transposase system was utilized to allow for the stable integration of the GloSensor-22F cAMP sensor (Promega, Madison, WI, USA) gene into genomic TTAA sites in Chinese hamster ovary cells already stably expressing the hKOR. The pFastBac hyperPB plasmid vector, which codes for the piggy-Bac transposon/transposase system, was utilized and was a kind gift from Dr. John Lueck. The multicistronic expression cassette developed for our experiments consisted of a CMV promoter driving constitutive expression of GloSensor-22F cAMP sensor, followed by an internal ribosome entry site (IRES) to drive the expression of codon-optimized HygR-P2A-mScarlet (hygromycin resistance gene and mScarlet separated by a 2A self-cleaving peptide element). To clone the expression cassette onto the pFastBac vector, the CMV promoter and GloSensor-22F were PCR amplified from pGloSensor-22F cAMP Plasmid (Promega), the IRES sequence was PCR amplified from pLVX-CMV-Galpha-oA ONE-GO (a gift from Dr. Mikel Garcia-Marcos, Addgene plasmid #189732), the HygR-P2A-mScarlet sequence was a kind gift from Dr. Lueck, and a bGH-poly(A) termination sequence was PCR amplified from pcDNA3.1(+). The pFastBac vector was linearized via overnight digestion with CspCI at 37 °C, which cuts between two inverted terminal repeat (ITR) sequences, and the corresponding backbone and all PCR fragments were gel purified and assembled via Gibson assembly using the Gibson Assembly MasterMix (New England Biolabs, Ipswich, MA, USA). The resulting pFastBac CMV GloSensor-22F IRES HygR-P2A-mScarlet bGH plasmid was transformed into NEB Stable Competent E. coli (New England Biolabs), miniprepped using the E.Z.N.A. Plasmid DNA Mini Kit (Omega Bio-Tek, Norcross, GA, USA), and sequence verified by nanopore whole-plasmid sequencing (Eurofins Genomics, Louisville, KY, USA).
3.0 × 10^6 hKOR-CHO cells were plated on a 6 cm dish and incubated for four h at 37 °C and 5% CO2 in DMEM (Corning Mediatech, Manassas, VA, USA) supplemented with 5% FBS (Corning Mediatech), 1% Penicillin/Streptomycin (Gibco, Waltham, MA, USA). The cells were then transfected with 2.0 μg pFastBac CMV GloSensor-22F IRES HygR-P2A-mScarlet bGH using PEI as a transfection reagent. The following day, transfected cells were reseeded onto a 10 cm dish at a density of 5.0 × 10^5 cells and 600 μg/mL hygromycin B (Gold Bio, St. Louis, MO, USA) was added to the culture media. Cells were cultured under selection antibiotics for seven days, and the selection process was monitored by the increase in abundance of mScarlet positive cells via epifluorescence microscopy.
Following the selection period, KOR-CHO-GLO cells were maintained at 37 °C and 5% CO2 in DMEM supplemented with 5% FBS, 1% Penicillin/Streptomycin and 300 μg/mL hygromycin B to reduce the likelihood of CMV promoter silencing. On the day of the assay, cells were detached with 0.05% trypsin (Gibco) and counted, then centrifuged (1000× g, 5 min) and resuspended in assay buffer (1xPBS, 0.1% glucose, 0.5 mM MgCl2) containing 4 mM D-luciferin substrate (Gold Bio) at approximately 2 million cells/mL. 25 μL of cells (~50,000/well) were seeded onto poly L-lysine-coated white 96-well flat bottom plates (Greiner Bio-One, Kremsmünster, Austria)) and returned to the incubator for 60 min. Following incubation, cells were allowed to equilibrate to room temperature protected from light (10–15 min). Initial luminescence readings (at least 10 cycles) were collected for each well using a FLUOstar Omega v.6.2 plate reader (BMG Labtech, Ortenberg, Germany), after which the plate was removed. Prepared 4x treatments of drug (25 μL) were added to appropriate wells followed by 50 μL of 20 μM forskolin (AmBeed, Buffalo Grove, IL, USA) before the plate was returned to the reader and luminescence measured until final plateau levels were achieved (20–30 min). Assays were performed in duplicate and repeated at least three times.

The nature of series [4]: Metabolic stability in human liver microsomes. The settings on record: human liver microsomes, 1 mg protein/mL; for half-life at 1 µM: 1 µM compound, 37 °C, read-out: HLM t1/2; for microsomal CLint at 1 µM: read-out: HLM CLint. The format is in vitro ADME. As for the experimental part: (§1) Evaluation of the metabolic stability of the macrocyclic tetrapeptides by human and mouse liver microsomes was performed by Curia Global (Buffalo, NY, USA). […]

The nature of series [5]: Metabolic stability in mouse liver microsomes. The settings on record: mouse liver microsomes, 1 mg protein/mL; for half-life at 1 µM: 1 µM compound, 37 °C, read-out: MLM t1/2; for microsomal CLint at 1 µM: read-out: MLM CLint. The format is in vitro ADME. As for the experimental part:
as §1

Series [6] is described as follows: Kinetic aqueous solubility. The format is physicochemical. The settings on record: 1% DMSO, pH 7.4. The text has this:
Table A1 Stability of [D-Trp]- and [D-Phe^4]CJ-15,208 and selected analogs in human (HLMs) and mouse liver microsomes (MLMs)^1. and kinetic aqueous solubility. | column: Solubility ^2 / (µM)

For series [7], the system named is C57BL/6J mice. Also on record: method as in PMID 23425081. The conditions noted are these: cited from earlier work.
For a further series, the target named is KOR. Also on record: method as in PMID 37765026. The conditions noted are these: cited from earlier work.
The subject of series [8] is C57BL/6J mice. The experiment in a line: 55 °C warm-water tail-withdrawal assay, antinociception. Type of series: in vivo, mouse. The conditions noted are these: p.o. dose response; significant only first 10 min at high doses. As to the method:
For intracerebroventricular administration, peptides were dissolved in DMSO at a concentration of 20 mM (100 nmol/5 µL), then diluted to test doses in a final vehicle solution of 50%DMSO/50% saline (0.9%). For all other testing (for oral administration), peptides were made fresh each day for testing in a final vehicle solution of 10% DMSO/10% Solutol/80% saline (0.9%).
Intracerebroventricular injections were made directly into the lateral ventricle according to the modified steps detailed previously. The volume of all i.c.v. injections was 5 μL, using a 10 μL Hamilton microliter syringe. The mouse was lightly anesthetized with isoflurane, an incision was made in the scalp, and the injection was made 2 mm lateral and 2 mm caudal to bregma at a depth of 3 mm.
The dose response of analogs 3, 6, 9 and 14 were also assessed following administration of one of up to four additional oral (p.o.) doses (1–30 mg/kg).

The target of the next series is DOR (Mus musculus, UniProt P32300). The experiment in a line: 55 °C WWTW assay, antagonism of the DOR-selective agonist SNC80. The conditions noted are these: 3 or 4 30 mg/kg, p.o., 9 10 mg/kg, 2.5 h before SNC-80 100 nmol, i.c.v.
The target in the next series is MOR (Mus musculus, UniProt P42866). The experiment in a line: 55 °C WWTW assay, antagonism of the MOR-preferring agonist morphine. The conditions noted are these: 3 or 4 30 mg/kg, p.o., 9 10 mg/kg, 2.5 h before morphine 10 mg/kg, i.p.
Another series addresses CNS KORs (Mus musculus, UniProt P33534). The experiment in a line: 55 °C WWTW assay, antagonism of centrally administered U50,488 (30 nmol, i.c.v.). The conditions noted are these: 2.5 h pretreatment; for antagonism of CNS KORs: 30 mg/kg, p.o. (9: 10 mg/kg, p.o.).
In series [9] the test system is C57BL/6J mice. The experiment in a line: Stress-induced reinstatement of extinguished cocaine conditioned place preference.
Where [10] appears, read: [3H]U69,593, human KOR, ± S.E.M., three independent experiments, read-out: KOR Ki.
Where [11] appears, read: [3H]DAMGO, human MOR, ± S.E.M., three independent experiments, read-out: MOR Ki.

In the case of `O=C1N[C@H](Cc2c[nH]c3ccccc23)C(=O)N[C@@H](Cc2ccccc2)C(=O)N2CCC[C@@H]2C(=O)N[C@H]1Cc1ccccc1` [Analog 1, cyclo[Phe-D-Pro-Phe-D-Trp]] (cyclo(F[dP]F[dW])), the Ki at hKOR [1] is 6.9 ± 1.1 nM; on human MOR it was 58 ± 7.5 nM; on KOR, 21.8 nM. Also, the “Selectivity (MOR Ki/KOR Ki)” value on hKOR [1] was found to be 8. In addition, at hKOR [2], the Emax at 10 µM worked out at 16 ± 2.4%. For the same molecule, the IC50 at hKOR [3] was 66 ± 11 nM. The half-life at 1 µM came out at 5.5 min in series [4] and 2.6 min in [5]. Moreover, the results for the microsomal CLint at 1 µM in [4] and in [5] were 127 µL/min/mg and 269 µL/min/mg, respectively. Further, the kinetic solubility in series [6] came to 23 µM (≈ 13.3 µg/mL). Further, the “dose required to prevent stress-induced reinstatement” value in the series with C57BL/6J mice [7] is 60 mg/kg, p.o.
`O=C1N[C@H](Cc2ccccc2)C(=O)N[C@@H](Cc2ccccc2)C(=O)N2CCC[C@@H]2C(=O)N[C@H]1Cc1ccccc1` [Analog 4, cyclo[Phe-D-Pro-Phe-D-Phe]] (cyclo(F[dP]F[dF])): the “fold lower KOR affinity than [D-Trp]CJ-15,208 (1)” value on hKOR [1] was 3.5 fold. Also, the “Selectivity (MOR Ki/KOR Ki)” value at hKOR [1] (MOR Ki/KOR Ki) is reported as 11. For the same molecule, the Ki is 24 ± 0.97 nM on hKOR [1] (setting [10]) and 270 ± 23 nM on human MOR (setting [11]). The Emax at 10 µM on hKOR [2] was found to be 19 ± 8.1%. Half-maximal inhibition against hKOR [3] (IC50) was put at 460 ± 100 nM. In addition, the half-life at 1 µM in [4] came out at 4.2 min; in [5], 1.6 min. Besides, the microsomal CLint at 1 µM came to 165 µL/min/mg in [4] and 447 µL/min/mg in series [5]. The molecule also yielded a solubility (kinetic) in [6] of 24 µM (≈ 12.9 µg/mL). Besides, the antinociception in the series with C57BL/6J mice [8] is below 20%. For the same molecule, the “effect on antinociceptive effects of SNC80” value at DOR is given as “no significant effect”. Besides, on MOR, the “effect on antinociceptive effects of morphine” value is “no significant effect”. Further, the “doses not producing significant antagonism of CNS KORs” value at CNS KORs is reported as 3 mg/kg, p.o. Besides, the “antagonism of CNS KORs” value at CNS KORs is “significant antagonism”. The “doses not preventing stress-induced reinstatement of cocaine CPP” value with C57BL/6J mice [9] (p.o. once daily for two days, 1.5 h prior to FSS) was 3 mg/kg. Further, in the series on C57BL/6J mice [9] (vs 60 mg/kg, p.o.), the “fold lower dose for significant reduction of stress-induced reinstatement than [D-Trp]CJ-15,208” value is on record as 6 fold.
On to `O=C1N[C@H](Cc2cc(F)cc(F)c2)C(=O)N[C@@H](Cc2ccccc2)C(=O)N2CCC[C@@H]2C(=O)N[C@H]1Cc1ccccc1` [Analog 9, [D-Phe(3,5-F2)^4]CJ-15,208] (cyclo(F[dP]F[dPhe(3,5-F2)])), for which, at hKOR [1] (MOR Ki/KOR Ki), the “Selectivity (MOR Ki/KOR Ki)” value is reported as 12. Further, the inhibition constant Ki on hKOR [1] (setting [10]) was 25 ± 4.3 nM; on human MOR (setting [11]), 290 ± 27 nM. In addition, at hKOR [2], the Emax at 10 µM was 14 ± 2.4%. This molecule also yielded an IC50 at hKOR [3] of 320 ± 49 nM. Further, the half-life at 1 µM is 2.9 min in [4] and 1.2 min in series [5]. The results for the microsomal CLint at 1 µM in series [4] and in series [5] were 237 µL/min/mg and 600 µL/min/mg, respectively. The solubility (kinetic) in series [6] was found to be 8.6 µM (≈ 4.94 µg/mL). Moreover, the antinociception in the series on C57BL/6J mice [8] is below 20%. Besides, on DOR, the “effect on antinociceptive effects of SNC80” value was “no significant effect”. Further, on MOR, the “effect on antinociceptive effects of morphine” value is given as “no significant effect”. The “antagonism of CNS KORs” value at CNS KORs is given as “significant antagonism”. In addition, the “reduction of stress-induced reinstatement of cocaine CPP” value with C57BL/6J mice [9] (10 mg/kg, p.o.) is given as “not significant”.
